pIC50: −log10 of the molar value. Where “and” joins values, the source holds several entries; their conditions need not be identical. Equal entries are not always repeated. Where two headings read alike, the source gives them in different places.
Assays:
MOLM-13 AML cell line = test: In vitro uridine rescue assay (MTS, Combenefit); format: cell-based, human; details: MOLM-13, exogenous uridine, n=3
Procedure: In vitro analysis of the antagonistic activity of uridine to HOSU-53 efficacy on MOLM-13 cells was done using MTS proliferation assay with increasing concentrations of uridine, HOSU-53, or the combination. Three biological replicates were analyzed using Combenefit software with mathematical models for highest single agent ([48]).

CYP 2C8 = CYP 2C8 (Homo sapiens, UniProt P10632); test: CYP inhibition 2C8; format: in vitro ADME
Description: (§1) Supplement jciinsight-9-173646-s083.xlsx, sheet "Supplemental Table S.2." | column: HOSU-53

[1] = MOLM-13 CDX multiple ascending dose study; format: in vivo; details: male, mouse, in vivo, po; daily p.o., MOLM-13 CDX NCG mice; read-out: maximum tolerated dose (MTD), daily dose
Description: (§2) Male 8- to 12-week-old NCG mice (NOD-Prkdc^em26Cd52Il2rg^em26Cd22/NjuCrl, Charles River) were engrafted with 1 × 10^5 cells via tail vein i.v. injection. Four days after engraftment (day 1 of treatment), mice (n = 10/arm) were randomized to receive p.o. qd vehicle (40% HPβCD) or ascending doses of oral HOSU-53.

[2] = test system: MOLM-13 disseminated CDX AML model; test: MOLM-13 CDX multiple ascending dose study; format: in vivo
Description: as §2

[3] = test system: panel of approximately 450 human kinases; test: KINOMEscan profiling; format: binding; details: 10 μM
Procedure: Supplemental Figure S.1. HOSU-53 KINOMEscan™ Profiling. Eurofins DiscoverX KINOMEscan®
Profiling was conducted using 10 μM HOSU-53 to investigate the presence of any off-target kinase
(1 picture or pasted object on this page, not shown here)

CYP 2C9 = CYP 2C9 (Homo sapiens, UniProt P11712); test: CYP inhibition 2C9; format: in vitro ADME
Description: as §1

[4] = Mini-Ames Mutagenicity Test; details: CHO-WBL cells with and without S9 activation (so in the source)
Description: as §1

[5] = HOSU-53 plasma exposure in MOLM-13 tumor-bearing mice; format: in vivo, NCG mice; details: 10 mpk PO, female mice, per mouse, 10 mg/kg
U937 = test: MTS proliferation assay, U937; format: cell-based; details: Homo sapiens, U-937; U937, 96-hour treatment; read-out: IC50 (MTS proliferation)
Procedure: (§3) A total of 10,000–20,000 cells from different AML lines or 50,000–75,000 cells of primary AML blasts were treated in a 96-well plate for 72 hours or 96 hours at 37°C, 5% CO2. CellTiter 96 Aqueous MTS reagent (Promega) was added to cells followed by a 3-hour incubation at 37°C, 5% CO2. The absorbance was measured at 490 nm using DTX 880 plate reader, and the IC50 was calculated using GraphPad Prism.

CYP 2D6 = CYP 2D6 (Homo sapiens, UniProt P10635); test: CYP inhibition 2D6; format: in vitro ADME
Description: as §1

MOLM-13 = test: MTS proliferation assay, MOLM-13; format: cell-based; details: Homo sapiens; MOLM-13, 96-hour treatment; read-out: IC50 (MTS proliferation)
Procedure: as §3

[6] = target: T1, human DHODH (hDHODH, amino acid residues 31-395) (Homo sapiens, UniProt Q02127); test: Cell-free human DHODH enzyme inhibition assay; format: biochemical
T1 construct: purchased Reaction Biology (assay run there as a service)
Procedure: Details are described in the Supplemental Methods. […]
Enzyme inhibition of human DHODH […]
performed at Reaction Biology (Malvern, PA, USA). Briefly, a two-step fluorescence-based assay was used to test compounds in duplicates using a 10-dose IC50 mode with 3-fold serial dilution starting at 1 µM or 10 µM. The enzymatic step for hDHODH (used at […]
to orotate and followed by resazurin (used at 60 or 80 µM per reaction) catalyzed to […]
resorufin. […]

[7] = test system: MOLM-13 disseminated CDX AML model; test: MOLM-13 CDX synergy with FLT3 inhibitor gilteritinib (treatment from day 10); format: in vivo, NCG mice
Description: Male 8- to 12-week-old NCG mice were engrafted with 1 × 10^5 cells via tail vein i.v. injection. At 10 days after engraftment (day 1 of treatment), mice (n = 10/arm) were randomized to receive p.o. qd vehicle (50/50 mix of 20% HPβCD and 0.5% methylcellulose + 0.2% Tween 80), […] treatment, day 79. Treatment was predetermined to stop on day 79, after which any remaining mice would be monitored until ERC.

Dog DHODH = Dog DHODH (Canis lupus familiaris, UniProt A0A8I3MWX2); test: Cell-free multi-species DHODH enzyme inhibition assay, dog; format: biochemical; details: n=1
In vivo p.o. PK in rat = details: po
Description: as §1

Protein binding, AAG = format: in vitro ADME; details: 0.07% AAG
Description: as §1

THP-1 cells = test: E. coli phagocytosis assay; format: cell-based, human; details: THP-1 treated 6 days
Procedure: The THP-1 AML cell line was treated for 6 days, then washed and cocultured with pHrodo Deep Red E. coli BioParticles (P35360, Invitrogen) per the manufacturer’s protocol. Ten-minute pretreatment with 10 μM of cytochalasin D (actin polymerization inhibitor) was used as a negative control for phagocytosis. After 90 minutes of incubation with E. coli, cells were washed and run on the Cytek Aurora spectral flow cytometer.

T1 sequence (Q02127 31-395): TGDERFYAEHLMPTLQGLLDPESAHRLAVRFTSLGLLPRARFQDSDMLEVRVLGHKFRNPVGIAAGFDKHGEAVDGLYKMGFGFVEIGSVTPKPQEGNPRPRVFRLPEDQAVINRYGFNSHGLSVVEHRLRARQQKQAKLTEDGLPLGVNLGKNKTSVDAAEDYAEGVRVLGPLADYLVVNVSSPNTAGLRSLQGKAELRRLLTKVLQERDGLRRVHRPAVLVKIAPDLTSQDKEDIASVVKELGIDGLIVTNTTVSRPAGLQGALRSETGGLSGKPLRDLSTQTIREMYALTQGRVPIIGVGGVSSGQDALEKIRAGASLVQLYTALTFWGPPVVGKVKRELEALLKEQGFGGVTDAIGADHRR
CYP 2C8, sequence (P10632 whole entry): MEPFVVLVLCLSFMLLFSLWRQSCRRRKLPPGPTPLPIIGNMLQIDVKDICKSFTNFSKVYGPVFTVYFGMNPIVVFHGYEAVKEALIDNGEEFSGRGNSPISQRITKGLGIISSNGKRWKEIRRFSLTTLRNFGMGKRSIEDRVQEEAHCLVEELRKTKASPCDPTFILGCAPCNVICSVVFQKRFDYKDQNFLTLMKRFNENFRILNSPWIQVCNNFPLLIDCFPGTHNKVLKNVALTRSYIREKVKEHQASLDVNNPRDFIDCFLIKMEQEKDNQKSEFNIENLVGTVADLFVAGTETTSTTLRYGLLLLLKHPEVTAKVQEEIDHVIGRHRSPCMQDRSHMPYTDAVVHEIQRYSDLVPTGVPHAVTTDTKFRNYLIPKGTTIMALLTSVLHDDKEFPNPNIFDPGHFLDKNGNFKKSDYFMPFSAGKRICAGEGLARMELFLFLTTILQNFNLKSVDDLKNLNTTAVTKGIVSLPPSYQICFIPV
CYP 2D6, sequence (P10635 whole entry): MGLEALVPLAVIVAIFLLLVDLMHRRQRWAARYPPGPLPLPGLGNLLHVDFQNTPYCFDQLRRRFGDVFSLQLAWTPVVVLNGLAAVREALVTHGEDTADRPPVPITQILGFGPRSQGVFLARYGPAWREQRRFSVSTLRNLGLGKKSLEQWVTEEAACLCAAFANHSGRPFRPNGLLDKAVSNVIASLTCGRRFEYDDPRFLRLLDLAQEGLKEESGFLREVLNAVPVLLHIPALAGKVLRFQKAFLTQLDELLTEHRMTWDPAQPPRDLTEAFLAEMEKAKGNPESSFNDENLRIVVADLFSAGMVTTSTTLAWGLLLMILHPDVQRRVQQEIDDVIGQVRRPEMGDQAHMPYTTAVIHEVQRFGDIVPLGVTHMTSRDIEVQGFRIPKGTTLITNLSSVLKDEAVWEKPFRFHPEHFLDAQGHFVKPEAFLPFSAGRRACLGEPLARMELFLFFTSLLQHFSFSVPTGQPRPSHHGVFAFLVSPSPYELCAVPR
Dog DHODH, sequence (A0A8I3MWX2 1-406): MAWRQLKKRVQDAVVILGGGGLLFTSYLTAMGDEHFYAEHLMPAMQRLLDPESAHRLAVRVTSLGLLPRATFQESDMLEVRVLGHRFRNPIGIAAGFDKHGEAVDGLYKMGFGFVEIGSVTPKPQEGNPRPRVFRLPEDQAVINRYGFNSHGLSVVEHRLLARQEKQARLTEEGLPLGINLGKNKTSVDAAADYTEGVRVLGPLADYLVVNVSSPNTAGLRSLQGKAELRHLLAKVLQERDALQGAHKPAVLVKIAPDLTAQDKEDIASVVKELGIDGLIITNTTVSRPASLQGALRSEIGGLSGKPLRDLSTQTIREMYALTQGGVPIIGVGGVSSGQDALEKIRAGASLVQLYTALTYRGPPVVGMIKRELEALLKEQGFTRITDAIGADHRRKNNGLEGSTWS
CYP 2C9, sequence (P11712 whole entry): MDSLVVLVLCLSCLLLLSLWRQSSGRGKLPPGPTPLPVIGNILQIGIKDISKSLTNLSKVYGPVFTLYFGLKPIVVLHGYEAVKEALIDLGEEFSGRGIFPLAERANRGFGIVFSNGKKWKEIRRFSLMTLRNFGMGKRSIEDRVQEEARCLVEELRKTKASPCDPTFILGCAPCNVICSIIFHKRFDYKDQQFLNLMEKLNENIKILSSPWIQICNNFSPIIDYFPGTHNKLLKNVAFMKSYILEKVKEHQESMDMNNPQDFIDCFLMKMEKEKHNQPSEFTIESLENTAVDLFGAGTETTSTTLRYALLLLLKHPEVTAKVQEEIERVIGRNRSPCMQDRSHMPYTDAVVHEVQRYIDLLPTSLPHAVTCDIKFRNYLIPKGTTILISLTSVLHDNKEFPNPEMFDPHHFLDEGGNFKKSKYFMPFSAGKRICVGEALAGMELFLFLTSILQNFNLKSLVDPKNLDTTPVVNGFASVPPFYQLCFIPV

CCCCOc1cccc(-c2ccc(-c3cc(C(=O)O)c4cc(F)ccc4n3)cc2)c1 [HOSU-53]
uridine concentration at which metabolic resistance to HOSU-53 activity emerges (MOLM-13 AML cell line): above 25 μM | pIC50 (CYP 2C8): 5.74 | MTD [1]: 10 to 20 mg/kg | survival advantage vs vehicle ([2]; 1 mg/kg daily p.o., P < 0.05): modest yet significant survival advantage | tolerability ([2]; 10 mg/kg daily p.o.): well tolerated | tolerability ([2]; 30 mg/kg daily p.o., after 13 days of treatment): dose-limiting weight loss | tolerability ([2]; 100 mg/kg daily p.o.): toxic | Survival, day at event (per animal) ([2]; 0.1 mpk qd p.o.): 18 days and 17 days and 16 days | Survival, day at event (per animal) ([2]; 1 mpk qd p.o.): 22 days and 25 days and 21 days and 23 days | Survival, day at event (per animal) ([2]; 10 mpk qd p.o.): 63 days and 62 days and 48 days and 58 days and 61 days and 32 days and 57 days | Survival, day at event (per animal) ([2]; 30 mpk qdx13, holiday, 20 mpk qd start day 18, flag 0 = censored): 63 days and 15 days and 65 days and 14 days and 71 days and 67 days and ≥ 74 days | Survival, day at event (per animal) ([2]; 100 mpk qdx6): 10 days and 9 days | alternative-target activity against kinase panel [3]: lack of alternative-target activity | pIC50 (CYP 2C9): 5.94 | Mini-Ames Mutagenicity Test [4]: Negative | HOSU-53 AUCall ([5]; Day 1): 2462.63 µM·h and 1961.3 µM·h | HOSU-53 AUCall ([5]; Day 14): 3818.57 µM·h and 3432.74 µM·h | pIC50 (U937): 7.48 | pIC50 (CYP 2D6): 4.52 | pIC50 (MOLM-13): 7.89 | pIC50 ([6]; cell-free multi-species assay, n=1, read-out: DHODH IC50 Human): 9.16 | pIC50 ([6]; cell-free, HOSU-53, BAY, BRQ averaged from 6, 10, 4 replicates, read-out: hDHODH IC50): 9.02 | median survival ([7]; 10 mg/kg HOSU-53 daily p.o.): 48 days | Survival, day of study at event (per animal) ([7]; 4 mpk HOSU-53 poqd): 40 days and 35 days and 44 days and 43 days and 37 days and 39 days | Survival, day of study at event (per animal) ([7]; 10 mpk HOSU-53 poqd): 54 days and 44 days and 43 days and 59 days and 58 days and 52 days | pIC50 (Dog DHODH): 8.90 | bioavailability (In vivo p.o. PK in rat; read-out: in vivo p.o. bioavailability (F)): 59% | half-life (In vivo p.o. PK in rat; read-out: in vivo p.o. t1/2 (converted)): 7.6 h | fraction unbound (Protein binding, AAG): 0.015 | phagocytosis of E. coli (THP-1 cells): enhanced ability to phagocytose E. coli

— article PMC11141866, “Pyrimidine depletion enhances targeted and immune therapy combinations in acute myeloid leukemia” (JCI Insight, 2024)
